Values belong to the compound of their own block, whether it stands above or below them.
What was measured:
[1] = target: Mitogen-activated protein kinase kinase kinase 3 (Homo sapiens, UniProt Q99759); assay: Selectivity interaction (Enzymatic assay) EUB0000178b MAP3K3
[2] = target: Mitogen-activated protein kinase kinase kinase 1 (Homo sapiens) (UniProt Q13233); assay: Selectivity interaction (KinomeScan (DiscoverX)) EUB0000698a MAP3K1; conditions: at 10 µM
[3] = target: Epithelial discoidin domain-containing receptor 1 (Homo sapiens, UniProt Q08345); conditions: at 1 µM
[4] = target: Tyrosine-protein kinase Lck (Homo sapiens, UniProt P06239); conditions: at 1 µM
[5] = target: eIF-2-alpha kinase GCN2 (Homo sapiens) (UniProt Q9P2K8); assay: Selectivity interaction (KinomeScan (DiscoverX)) EUB0000702a EIF2AK4; conditions: at 1 µM
[6] = target: T1, Mitogen-activated protein kinase 15 (Homo sapiens) (UniProt Q8TD08); assay: Selectivity interaction (KinomeScan (DiscoverX)) EUB0000702a MAPK15; conditions: at 1 µM
T1 sequence (whole entry): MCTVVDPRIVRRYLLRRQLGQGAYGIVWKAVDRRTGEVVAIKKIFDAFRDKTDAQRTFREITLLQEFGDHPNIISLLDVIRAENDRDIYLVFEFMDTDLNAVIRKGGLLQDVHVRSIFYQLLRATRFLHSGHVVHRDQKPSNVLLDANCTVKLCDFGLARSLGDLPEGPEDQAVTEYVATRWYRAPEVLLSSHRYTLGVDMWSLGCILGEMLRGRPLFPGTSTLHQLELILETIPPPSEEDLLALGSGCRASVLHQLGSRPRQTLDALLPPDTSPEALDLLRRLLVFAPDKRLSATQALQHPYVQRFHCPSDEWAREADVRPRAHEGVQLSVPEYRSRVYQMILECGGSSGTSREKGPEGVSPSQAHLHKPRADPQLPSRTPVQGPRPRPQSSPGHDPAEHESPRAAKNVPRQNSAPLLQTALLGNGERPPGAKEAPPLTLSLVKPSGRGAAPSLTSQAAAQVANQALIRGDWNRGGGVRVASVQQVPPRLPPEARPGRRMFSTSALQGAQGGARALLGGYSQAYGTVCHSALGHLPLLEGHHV

[7] = target: Serine/threonine-protein kinase RIO1 (Homo sapiens) (UniProt Q9BRS2); assay: Selectivity interaction (KinomeScan (DiscoverX)) EUB0000702a RIOK1; conditions: at 1 µM
[8] = system: T2, Receptor-type tyrosine-protein kinase FLT3 (Homo sapiens), P36888 [D835V]; assay: Selectivity interaction (KinomeScan (DiscoverX)) EUB0000305b FLT3; conditions: at 100 nM
T2 sequence (whole entry): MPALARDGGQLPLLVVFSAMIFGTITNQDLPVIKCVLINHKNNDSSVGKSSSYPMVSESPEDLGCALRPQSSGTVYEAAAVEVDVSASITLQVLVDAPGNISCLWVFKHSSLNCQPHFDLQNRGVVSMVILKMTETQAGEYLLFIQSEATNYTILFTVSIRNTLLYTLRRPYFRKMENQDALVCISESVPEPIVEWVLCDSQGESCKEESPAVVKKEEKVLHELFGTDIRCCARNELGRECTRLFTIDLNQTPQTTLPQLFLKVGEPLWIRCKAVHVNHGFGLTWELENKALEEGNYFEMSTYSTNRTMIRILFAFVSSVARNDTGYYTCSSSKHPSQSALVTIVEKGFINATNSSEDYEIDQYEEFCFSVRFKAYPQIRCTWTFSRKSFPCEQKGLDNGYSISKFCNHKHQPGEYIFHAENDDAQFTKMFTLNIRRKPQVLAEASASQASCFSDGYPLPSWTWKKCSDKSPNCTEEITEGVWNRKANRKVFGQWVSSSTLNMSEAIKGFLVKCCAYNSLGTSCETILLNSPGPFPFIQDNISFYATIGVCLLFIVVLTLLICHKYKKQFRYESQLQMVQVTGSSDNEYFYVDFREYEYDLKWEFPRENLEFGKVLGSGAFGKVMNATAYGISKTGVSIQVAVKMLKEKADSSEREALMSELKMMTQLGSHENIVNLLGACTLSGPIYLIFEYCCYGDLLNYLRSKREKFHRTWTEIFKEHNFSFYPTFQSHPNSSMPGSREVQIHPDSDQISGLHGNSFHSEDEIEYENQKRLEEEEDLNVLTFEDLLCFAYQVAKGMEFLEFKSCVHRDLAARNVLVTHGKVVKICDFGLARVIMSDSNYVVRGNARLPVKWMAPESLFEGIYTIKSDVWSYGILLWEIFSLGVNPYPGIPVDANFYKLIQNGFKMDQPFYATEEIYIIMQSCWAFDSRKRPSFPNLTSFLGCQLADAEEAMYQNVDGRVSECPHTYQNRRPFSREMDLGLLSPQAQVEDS

[9] = target: Mitogen-activated protein kinase kinase kinase 19 (Homo sapiens, UniProt Q56UN5); assay: Selectivity interaction (NanoBRET assay (HEK293T cells)) EUB0000305b MAP3K19
[10] = target: 5'-AMP-activated protein kinase catalytic subunit alpha-1 (Homo sapiens, UniProt Q13131); assay: Selectivity interaction (Kinase panel (University of Dundee)) EUB0000169b PRKAA1; conditions: at 10 µM
[11] = system: ALK tyrosine kinase receptor (Homo sapiens), Q9UM73 [C1156Y]; assay: Selectivity interaction (KinomeScan (DiscoverX)) EUB0000169b ALK; conditions: at 1 µM
[12] = target: Mitogen-activated protein kinase 11 (Homo sapiens) (UniProt Q15759); assay: Selectivity interaction (Kinase panel (University of Dundee)) EUB0000169b MAPK11; conditions: at 10 µM
Mitogen-activated protein kinase 11 (Homo sapiens), sequence (Q15759 whole entry): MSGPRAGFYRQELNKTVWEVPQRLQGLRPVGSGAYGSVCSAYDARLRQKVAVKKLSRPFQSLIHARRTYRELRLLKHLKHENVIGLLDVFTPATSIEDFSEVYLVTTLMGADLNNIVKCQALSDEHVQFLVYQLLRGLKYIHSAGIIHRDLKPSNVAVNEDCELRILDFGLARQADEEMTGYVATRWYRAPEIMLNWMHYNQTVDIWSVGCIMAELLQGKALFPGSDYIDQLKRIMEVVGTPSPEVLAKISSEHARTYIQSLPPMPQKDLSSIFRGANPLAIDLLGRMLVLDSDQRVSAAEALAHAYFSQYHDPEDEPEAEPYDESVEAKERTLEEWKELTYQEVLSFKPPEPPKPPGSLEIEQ

Mitogen-activated protein kinase kinase kinase 1 (Homo sapiens), sequence (Q13233 whole entry, the tested form may be a part): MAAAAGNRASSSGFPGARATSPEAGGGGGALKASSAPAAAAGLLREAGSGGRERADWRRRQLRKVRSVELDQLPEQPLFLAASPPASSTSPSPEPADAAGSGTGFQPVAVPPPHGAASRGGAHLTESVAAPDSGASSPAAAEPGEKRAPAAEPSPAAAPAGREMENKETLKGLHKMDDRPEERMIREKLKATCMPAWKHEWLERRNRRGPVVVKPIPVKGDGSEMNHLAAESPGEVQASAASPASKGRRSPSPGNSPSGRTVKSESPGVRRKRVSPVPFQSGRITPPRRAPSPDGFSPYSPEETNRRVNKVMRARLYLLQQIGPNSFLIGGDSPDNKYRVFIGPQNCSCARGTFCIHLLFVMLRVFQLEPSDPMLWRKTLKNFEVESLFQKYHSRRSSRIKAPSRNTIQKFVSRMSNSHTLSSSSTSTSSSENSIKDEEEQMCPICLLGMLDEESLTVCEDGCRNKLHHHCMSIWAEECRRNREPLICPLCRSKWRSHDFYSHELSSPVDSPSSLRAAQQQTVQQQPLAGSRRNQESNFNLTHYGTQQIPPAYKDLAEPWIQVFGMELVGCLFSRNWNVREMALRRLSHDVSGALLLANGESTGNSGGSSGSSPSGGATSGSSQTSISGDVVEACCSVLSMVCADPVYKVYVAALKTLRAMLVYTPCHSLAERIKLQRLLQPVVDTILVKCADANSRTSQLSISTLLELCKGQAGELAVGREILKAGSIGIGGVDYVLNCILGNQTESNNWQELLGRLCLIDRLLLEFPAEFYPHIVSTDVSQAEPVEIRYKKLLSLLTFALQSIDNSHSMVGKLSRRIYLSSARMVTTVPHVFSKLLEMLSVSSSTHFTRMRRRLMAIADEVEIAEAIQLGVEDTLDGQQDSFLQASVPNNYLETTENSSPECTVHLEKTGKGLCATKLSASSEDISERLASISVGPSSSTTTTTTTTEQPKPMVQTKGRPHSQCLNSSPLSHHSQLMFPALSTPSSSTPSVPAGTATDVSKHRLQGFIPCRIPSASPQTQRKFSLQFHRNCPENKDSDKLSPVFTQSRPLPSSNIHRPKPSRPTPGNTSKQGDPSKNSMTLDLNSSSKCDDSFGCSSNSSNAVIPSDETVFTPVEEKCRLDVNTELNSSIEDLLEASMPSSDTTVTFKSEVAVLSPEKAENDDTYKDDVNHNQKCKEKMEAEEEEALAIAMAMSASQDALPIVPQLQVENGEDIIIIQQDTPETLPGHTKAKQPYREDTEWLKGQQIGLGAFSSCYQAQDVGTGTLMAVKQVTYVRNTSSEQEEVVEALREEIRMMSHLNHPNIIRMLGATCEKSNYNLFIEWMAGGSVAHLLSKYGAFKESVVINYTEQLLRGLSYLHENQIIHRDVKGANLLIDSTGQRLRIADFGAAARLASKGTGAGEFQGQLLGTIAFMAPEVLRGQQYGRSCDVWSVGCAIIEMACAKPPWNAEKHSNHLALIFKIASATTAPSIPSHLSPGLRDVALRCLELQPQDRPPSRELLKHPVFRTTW
Epithelial discoidin domain-containing receptor 1, sequence (Q08345 whole entry, the tested form may be a part): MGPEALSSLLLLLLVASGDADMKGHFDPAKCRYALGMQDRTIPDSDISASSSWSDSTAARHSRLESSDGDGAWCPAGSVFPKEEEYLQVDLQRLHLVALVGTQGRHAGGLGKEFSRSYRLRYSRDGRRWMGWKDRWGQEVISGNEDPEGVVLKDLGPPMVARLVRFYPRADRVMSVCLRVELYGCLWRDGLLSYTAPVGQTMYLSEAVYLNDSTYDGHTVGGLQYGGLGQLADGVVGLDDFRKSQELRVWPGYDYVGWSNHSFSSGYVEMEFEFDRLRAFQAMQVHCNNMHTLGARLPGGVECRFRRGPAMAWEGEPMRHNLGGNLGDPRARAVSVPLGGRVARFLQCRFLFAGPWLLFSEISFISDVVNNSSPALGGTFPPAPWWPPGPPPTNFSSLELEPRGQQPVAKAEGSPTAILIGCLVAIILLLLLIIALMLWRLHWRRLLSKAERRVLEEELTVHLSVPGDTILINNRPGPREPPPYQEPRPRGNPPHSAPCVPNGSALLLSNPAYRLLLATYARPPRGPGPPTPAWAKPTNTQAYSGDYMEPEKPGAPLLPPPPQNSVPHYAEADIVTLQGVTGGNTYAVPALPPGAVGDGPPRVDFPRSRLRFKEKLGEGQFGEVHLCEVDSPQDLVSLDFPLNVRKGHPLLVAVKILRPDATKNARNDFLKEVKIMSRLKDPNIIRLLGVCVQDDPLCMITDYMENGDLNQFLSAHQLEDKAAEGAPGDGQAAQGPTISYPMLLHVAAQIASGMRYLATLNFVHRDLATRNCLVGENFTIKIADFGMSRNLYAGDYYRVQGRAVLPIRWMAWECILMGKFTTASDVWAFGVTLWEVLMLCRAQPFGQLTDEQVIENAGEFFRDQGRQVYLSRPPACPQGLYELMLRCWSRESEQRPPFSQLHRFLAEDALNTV
ALK tyrosine kinase receptor (Homo sapiens), Q9UM73 [C1156Y], sequence (Q9UM73 whole entry C1156Y, looked up): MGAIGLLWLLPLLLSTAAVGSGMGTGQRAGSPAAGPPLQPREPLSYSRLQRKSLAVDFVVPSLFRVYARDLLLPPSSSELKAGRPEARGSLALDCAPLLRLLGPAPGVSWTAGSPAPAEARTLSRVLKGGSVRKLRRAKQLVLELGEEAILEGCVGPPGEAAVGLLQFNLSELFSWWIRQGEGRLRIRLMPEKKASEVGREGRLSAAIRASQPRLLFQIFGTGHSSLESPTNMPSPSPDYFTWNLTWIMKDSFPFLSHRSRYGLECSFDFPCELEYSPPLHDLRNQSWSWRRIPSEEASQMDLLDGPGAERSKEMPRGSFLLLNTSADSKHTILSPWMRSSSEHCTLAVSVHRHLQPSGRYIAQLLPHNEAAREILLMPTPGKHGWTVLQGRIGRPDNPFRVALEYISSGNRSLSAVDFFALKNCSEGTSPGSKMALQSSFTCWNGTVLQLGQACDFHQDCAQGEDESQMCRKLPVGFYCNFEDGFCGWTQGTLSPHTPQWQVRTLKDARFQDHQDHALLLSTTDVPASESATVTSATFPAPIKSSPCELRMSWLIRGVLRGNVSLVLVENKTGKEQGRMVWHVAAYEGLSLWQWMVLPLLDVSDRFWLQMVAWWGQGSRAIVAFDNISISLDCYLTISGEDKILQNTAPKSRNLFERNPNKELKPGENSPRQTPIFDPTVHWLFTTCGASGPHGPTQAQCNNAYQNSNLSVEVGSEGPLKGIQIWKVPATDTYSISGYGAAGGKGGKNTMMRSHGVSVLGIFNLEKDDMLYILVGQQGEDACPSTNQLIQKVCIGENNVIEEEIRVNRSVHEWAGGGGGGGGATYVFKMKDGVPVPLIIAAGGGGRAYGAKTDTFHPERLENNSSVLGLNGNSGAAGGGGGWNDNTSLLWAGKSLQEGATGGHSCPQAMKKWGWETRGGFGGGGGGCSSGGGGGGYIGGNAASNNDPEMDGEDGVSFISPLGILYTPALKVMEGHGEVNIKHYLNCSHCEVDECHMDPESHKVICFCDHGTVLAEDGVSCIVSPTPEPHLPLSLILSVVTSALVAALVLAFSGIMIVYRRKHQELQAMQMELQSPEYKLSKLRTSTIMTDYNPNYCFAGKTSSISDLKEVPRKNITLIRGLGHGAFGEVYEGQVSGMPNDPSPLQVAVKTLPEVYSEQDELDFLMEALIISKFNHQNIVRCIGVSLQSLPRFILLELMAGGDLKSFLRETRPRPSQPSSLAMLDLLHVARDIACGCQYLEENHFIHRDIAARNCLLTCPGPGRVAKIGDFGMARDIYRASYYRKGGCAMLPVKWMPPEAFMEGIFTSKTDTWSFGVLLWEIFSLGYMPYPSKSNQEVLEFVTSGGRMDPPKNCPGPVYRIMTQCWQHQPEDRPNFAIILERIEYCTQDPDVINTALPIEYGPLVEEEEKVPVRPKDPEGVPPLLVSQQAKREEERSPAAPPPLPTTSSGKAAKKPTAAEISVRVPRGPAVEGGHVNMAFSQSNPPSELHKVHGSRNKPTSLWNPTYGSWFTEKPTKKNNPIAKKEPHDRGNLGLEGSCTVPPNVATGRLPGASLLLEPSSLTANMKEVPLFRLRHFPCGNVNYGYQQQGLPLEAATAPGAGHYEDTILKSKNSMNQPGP
5'-AMP-activated protein kinase catalytic subunit alpha-1, sequence (Q13131 whole entry, looked up): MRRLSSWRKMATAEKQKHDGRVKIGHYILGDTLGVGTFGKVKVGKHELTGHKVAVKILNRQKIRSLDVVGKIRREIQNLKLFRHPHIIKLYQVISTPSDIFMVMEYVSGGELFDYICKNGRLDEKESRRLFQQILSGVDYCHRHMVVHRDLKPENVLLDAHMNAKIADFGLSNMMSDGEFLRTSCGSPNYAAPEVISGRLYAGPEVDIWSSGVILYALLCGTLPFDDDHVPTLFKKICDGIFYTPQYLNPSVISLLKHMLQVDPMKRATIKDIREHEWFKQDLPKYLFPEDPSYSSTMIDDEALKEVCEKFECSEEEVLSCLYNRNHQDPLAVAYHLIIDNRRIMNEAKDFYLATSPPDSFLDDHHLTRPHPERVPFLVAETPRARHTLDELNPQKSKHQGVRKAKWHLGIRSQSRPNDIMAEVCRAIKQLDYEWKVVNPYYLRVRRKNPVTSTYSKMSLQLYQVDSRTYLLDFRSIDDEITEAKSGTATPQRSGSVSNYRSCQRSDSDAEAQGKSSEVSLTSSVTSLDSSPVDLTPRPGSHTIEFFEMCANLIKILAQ

Compound: CN1C(=O)c2sccc2N(C)c2nc(Nc3ccc(S(N)(=O)=O)cc3)ncc21
IC50 [1]: 34.8 nM

Compound: COc1cc2ncn(-c3cc(OCc4ccccc4C(F)(F)F)c(C(N)=O)s3)c2cc1OC [GW843682X]
% of control [2]: 1.6%

Compound: CCOc1cn(-c2ccc(F)cc2C)nc1C(=O)Nc1ccc(Oc2ccnc3cc(OC)c(OC)cc23)c(F)c1
% of control [3]: < 10%
% of control [4]: < 10%

Compound: CC[C@@H]1C(=O)N(C)c2cnc(Nc3ccc(C(=O)NC4CCN(C)CC4)cc3OC)nc2N1C1CCCC1
% of control [10]: 89%
% of control [11]: 0.3%
% of control [12]: 97%

Continued, in another order:

% of control [5]: 6.7%
% of control [7]: 9.7%
Compound: CN(c1ccnc(CNc2nc(Nc3ccc4c(c3)CC(=O)N4)ncc2C(F)(F)F)n1)S(C)(=O)=O [PF-00911705]
% of control [6]: 4.8%

% of control [8]: 32%
IC50 [9]: > 20000 nM
Compound: C[C@H](c1ccnc(Nc2nc3ccc(-c4cc(N(C)C)ncn4)cc3[nH]2)c1)N1CCN(C(=O)CC(F)(F)F)CC1 [BAY-985]

From ChEMBL document CHEMBL5212743, “Selectivity Literature for EUbOPEN Chemogenomics Library wave 3” (2023)
